Numbered stars: 1 amine (or outer) side, 2 acyl side, 3 side chain; on linkers, the order of the positions; unused ones are H or OH. Square brackets hold non-standard residues; d marks the D form. Peptide text beside a SMILES is read from it. * marks the point of attachment. X13 = CCCCCCCCCC(=O)Nc1ccc2c(c1)CN([*:1])[C@H](C(=O)[*:2])C2; Phenylacetic(2-CH2NH2) = O=C(Cc1ccccc1CN[*:1])[*:2]; 2(aminomethyl)benzoyl = O=C(c1ccccc1CN[*:1])[*:2]; X6 = CCCCCCCCCC(=O)NCCCNC(=O)c1ccc(C(=O)*)c(CN)c1; X2 = O=C([C@@H]1Cc2ccccc2N1[*:1])[*:2]; X9 = NCCS(=O)(=O)c1ccc(C(=O)*)c(CN)c1; Tiq1c(1S) = O=C(O)[C@H]1NCCc2ccccc21; X11 = NCCCNC(=O)c1ccc(C(=O)*)c(CN)c1; Tic = O=C(O)[C@@H]1Cc2ccccc2CN1; dTic = O=C(O)[C@H]1Cc2ccccc2CN1; X12 = Cc1cc(N)cc(C(=O)*)c1CN; X5 = Cc1cc(CN)cc(CN)c1C(=O)*; Decanoyl = CCCCCCCCCC(=O)*; X1 = O=C(O)Cc1ccccc1C(=O)*; X4 = NCc1ncccc1C(=O)*; X7 = NCc1cccnc1C(=O)*

One data set is described as follows: Determination of half life in PBS: cleavage of promoieties from capped model peptides. Type of data set: physicochemical. The settings on record: PBS (phosphate-buffered saline), pH 4; read-out: t 1/2 (h), cleavage of promoiety linked to N terminus of model peptide X-[…] (converted). How it is done:
Determination Of half Life in PBS
Polypeptides GIVEQAA-NH2 (SEQ ID NO: 57) and […] (SEQ ID NO: 58), two mimics of the N-terminus section of insulin A chain, were used as model peptides to determine the half lives of various promoieties linked to the N-terminus of the peptides through an amide bond. The model peptides were prepared with Fmoc chemistry, cleaved by TFA and purified by preparative RP-HPLC.
The promoiety capped model peptide was dissolved at 1 mg/mL concentration in PBS and the solution was incubated at 37° C. in a water bath. Samples were collected for analysis at different time points (e.g., 8 h, 16 h, 24 h, 48 h, 72 h, 96 h, 120 h). […] The promoiety cleavage was quenched by lowering pH to 2 by addition of 0.1% TFA solution. RP-HPLC was used to monitor the cleavage reactions and the cleavage rates were quantitatively studied by measuring the peak areas of the promoiety capped and released model peptides. Agilent 6110 Quadrupole LC-MS was employed to verify the change of mass in the course of reaction.
The RP-HPLC analysis was performed using a Shimadzu LC-2010A HT system and a 150 mm×4.6 mm Zorbax 300SB-C18 column. The flow rate was 1 ml/min. Solvent A contained 0.1% TFA/5% CH3CN in deionized water, and solvent B contained 0.1% TFA in 100% CH3CN. A linear gradient was employed (e.g., 10-70% B in 10 minutes).
The rate of cleavage was determined for the respective promoiety capped model peptides. The concentrations of the promoiety capped model peptides and the released model peptides were determined by their respective peak areas. The first order dissociation rate constant of a promoiety capped model peptide was determined by plotting the logarithm of [starting promoiety capped model peptide]/[remaining promoiety capped model peptide] at various time intervals. The half life for cleavage of a promoiety capped model peptide was calculated by using the equation and the slope derived from this plot.
The cleavage half lives of various promoieties linked to the model peptides were determined using the procedures described above.
Take `CC[C@H](C)[C@H](NC(=O)CNC(=O)c1ccccc1CC(=O)O)C(=O)N[C@H](C(=O)N[C@@H](CCC(=O)O)C(=O)N[C@@H](CCC(N)=O)C(=O)N[C@@H](C)C(=O)N[C@@H](C)C(=O)N[C@@H](Cc1ccc(O)cc1)C(=O)O)C(C)C` [drawing 171] (X1-GIVEQAAY-OH; C-terminus assumed): the half-life at 1 mg/mL is 6.2 h.

The data set is the same for the next values; noted with them: PBS, 37° C., 1 mg/mL, RP-HPLC.
Turning to “SEQ ID NO: 60 (GIVEQAAY; N-term may be promoiety modified)”, the “t 1/2 (h), cleavage of promoiety linked to N terminus of model peptide X-GIVEQAAY” value turned out to be 72.6 h.

The same data set, now with this note: PBS, 37° C., 1 mg/mL, RP-HPLC; read-out: t 1/2 (h), cleavage of promoiety linked to N terminus of model peptide X-GIVEQAA (converted).
As for `CCCCCCCCCC(=O)Nc1ccc2c(c1)CN(C(=O)[C@H](C)N)[C@H](C(=O)NCC(=O)N[C@H](C(=O)N[C@H](C(=O)N[C@@H](CCC(=O)O)C(=O)N[C@@H](CCC(N)=O)C(=O)N[C@@H](C)C(=O)N[C@@H](C)C(=O)O)C(C)C)[C@@H](C)CC)C2` (H-A[X13]GIVEQAA-OH), the half-life at 1 mg/mL is 38.9 h. Same read-out and setting: next, `CC[C@H](C)[C@H](NC(=O)CNC(=O)c1ccc(S(=O)(=O)CCN)cc1CN)C(=O)N[C@H](C(=O)N[C@@H](CCC(=O)O)C(=O)N[C@@H](CCC(N)=O)C(=O)N[C@@H](C)C(=O)N[C@@H](C)C(=O)O)C(C)C` (X9-GIVEQAA-OH): 28.1 h; `CC[C@H](C)[C@H](NC(=O)CNC(=O)c1c(C)cc(CN)cc1CN)C(=O)N[C@H](C(=O)N[C@@H](CCC(=O)O)C(=O)N[C@@H](CCC(N)=O)C(=O)N[C@@H](C)C(=O)N[C@@H](C)C(=O)O)C(C)C` (X5-GIVEQAA-OH; N-terminus and C-terminus assumed): 300 h; `CC[C@H](C)[C@H](NC(=O)CNC(=O)c1cc(N)cc(C)c1CN)C(=O)N[C@H](C(=O)N[C@@H](CCC(=O)O)C(=O)N[C@@H](CCC(N)=O)C(=O)N[C@@H](C)C(=O)N[C@@H](C)C(=O)O)C(C)C` (X12-GIVEQAA-OH; N-terminus and C-terminus assumed): 85 h.

The data set is the same for the next values; noted with them: PBS, 37° C., 1 mg/mL, RP-HPLC; read-out: t 1/2 (h), cleavage of promoiety linked to N terminus of model peptide X-[…] (converted).
With `CC[C@H](C)[C@H](NC(=O)CNC(=O)c1ccccc1CN)C(=O)N[C@H](C(=O)N[C@@H](CCC(=O)O)C(=O)N[C@@H](CCC(N)=O)C(=O)N[C@@H](C)C(=O)N[C@@H](C)C(=O)N[C@@H](Cc1ccc(O)cc1)C(=O)O)C(C)C` ({2(aminomethyl)benzoyl}-GIVEQAAY-OH; C-terminus assumed), the half-life at 1 mg/mL is 1030 h. As for `CCCCCCCCCC(=O)NCCCC[C@H](N)C(=O)N1Cc2ccccc2C[C@H]1C(=O)NCC(=O)N[C@H](C(=O)N[C@H](C(=O)N[C@@H](CCC(=O)O)C(=O)N[C@@H](CCC(N)=O)C(=O)N[C@@H](C)C(=O)N[C@@H](C)C(=O)N[C@@H](Cc1ccc(O)cc1)C(=O)O)C(C)C)[C@@H](C)CC` [NH2-K(C10)-Tic] (H-K(Decanoyl)[Tic]GIVEQAAY-OH; C-terminus assumed), the half-life at 1 mg/mL is 46.9 h. Regarding `CC[C@H](C)[C@H](NC(=O)CNC(=O)[C@@H]1Cc2ccccc2CN1C(=O)[C@H](C)N)C(=O)N[C@H](C(=O)N[C@@H](CCC(=O)O)C(=O)N[C@@H](CCC(N)=O)C(=O)N[C@@H](C)C(=O)N[C@@H](C)C(=O)N[C@@H](Cc1ccc(O)cc1)C(=O)O)C(C)C` [NH2-Ala-Tic] (H-A[Tic]GIVEQAAY-OH; C-terminus assumed), the half-life at 1 mg/mL was 58.9 h. The same measure, in the same setting: in the case of `CCCCCCCCCC(=O)NCCCC[C@H](N)C(=O)N1c2ccccc2C[C@H]1C(=O)NCC(=O)N[C@H](C(=O)N[C@H](C(=O)N[C@@H](CCC(=O)O)C(=O)N[C@@H](CCC(N)=O)C(=O)N[C@@H](C)C(=O)N[C@@H](C)C(=O)N[C@@H](Cc1ccc(O)cc1)C(=O)O)C(C)C)[C@@H](C)CC` [NH2-K(C10)-Indo2CA] (H-K(Decanoyl)[X2]GIVEQAAY-OH; C-terminus assumed) it was 6 h; in that of `CCCCCCCCCC(=O)NCCCC[C@H](N)C(=O)N1CCc2ccccc2[C@H]1C(=O)NCC(=O)N[C@H](C(=O)N[C@H](C(=O)N[C@@H](CCC(=O)O)C(=O)N[C@@H](CCC(N)=O)C(=O)N[C@@H](C)C(=O)N[C@@H](C)C(=O)N[C@@H](Cc1ccc(O)cc1)C(=O)O)C(C)C)[C@@H](C)CC` (H-K(Decanoyl)[Tiq1c(1S)]GIVEQAAY-OH), 262 h. Consider `CC[C@H](C)[C@H](NC(=O)CNC(=O)[C@@H]1Cc2ccccc2N1C(=O)[C@@H](N)C(C)C)C(=O)N[C@H](C(=O)N[C@@H](CCC(=O)O)C(=O)N[C@@H](CCC(N)=O)C(=O)N[C@@H](C)C(=O)N[C@@H](C)C(=O)N[C@@H](Cc1ccc(O)cc1)C(=O)O)C(C)C` [NH2-Val-Indo2CA] (H-V[X2]GIVEQAAY-OH; C-terminus assumed), for which the half-life at 1 mg/mL was 13 h. Still for that read-out and setting: next, `N[C@@H](CCCCNC(=O)OCC1c2ccccc2-c2ccccc21)c1nncn1[C@@H](CO)C(=O)O`: 79.7 h; `N[C@@H](CO)c1nncn1[C@@H](CCCCNC(=O)OCC1c2ccccc2-c2ccccc21)C(=O)O`: 193 h; `CC[C@H](C)[C@H](NC(=O)CNC(=O)c1ccccc1CC(=O)O)C(=O)N[C@H](C(=O)N[C@@H](CCC(=O)O)C(=O)N[C@@H](CCC(N)=O)C(=O)N[C@@H](C)C(=O)N[C@@H](C)C(=O)N[C@@H](Cc1ccc(O)cc1)C(=O)O)C(C)C` [drawing 173] (X1-GIVEQAAY-OH; C-terminus assumed): 183 h.

In the case of `CC[C@H](C)[C@H](NC(=O)CNC(=O)c1ccc(C(=O)NCCCN)cc1CN)C(=O)N[C@H](C(=O)N[C@@H](CCC(=O)O)C(=O)N[C@@H](CCC(N)=O)C(=O)N[C@@H](C)C(=O)N[C@@H](C)C(=O)N[C@@H](Cc1ccc(O)cc1)C(=O)O)C(C)C` (X11-GIVEQAAY-OH), the half-life at 1 mg/mL was 112 h.

On to `CCCCCCCCCC(=O)NCCCC[C@@H](N)C(=O)N1Cc2ccccc2C[C@@H]1C(=O)NCC(=O)N[C@H](C(=O)N[C@H](C(=O)N[C@@H](CCC(=O)O)C(=O)N[C@@H](CCC(N)=O)C(=O)N[C@@H](C)C(=O)N[C@@H](C)C(=O)N[C@@H](Cc1ccc(O)cc1)C(=O)O)C(C)C)[C@@H](C)CC` [NH2-dK(C10)-dTic] (H-[dK](Decanoyl)[dTic]GIVEQAAY-OH; C-terminus assumed), for which the half-life at 1 mg/mL was 50.6 h.

Consider `CC[C@H](C)[C@H](NC(=O)CNC(=O)c1cccnc1CN)C(=O)N[C@H](C(=O)N[C@@H](CCC(=O)O)C(=O)N[C@@H](CCC(N)=O)C(=O)N[C@@H](C)C(=O)N[C@@H](C)C(=O)N[C@@H](Cc1ccc(O)cc1)C(=O)O)C(C)C` (X4-GIVEQAAY-OH; C-terminus assumed), for which the half-life at 1 mg/mL was 458 h. With `CC[C@H](C)[C@H](NC(=O)CNC(=O)Cc1ccccc1CN)C(=O)N[C@H](C(=O)N[C@@H](CCC(=O)O)C(=O)N[C@@H](CCC(N)=O)C(=O)N[C@@H](C)C(=O)N[C@@H](C)C(=O)N[C@@H](Cc1ccc(O)cc1)C(=O)O)C(C)C` ({Phenylacetic(2-CH2NH2)}-GIVEQAAY-OH; C-terminus assumed), the half-life at 1 mg/mL was 482 h.

In the case of `CC[C@H](C)[C@H](NC(=O)CNC(=O)[C@@H]1Cc2ccccc2N1C(=O)[C@@H](N)Cc1ccccc1)C(=O)N[C@H](C(=O)N[C@@H](CCC(=O)O)C(=O)N[C@@H](CCC(N)=O)C(=O)N[C@@H](C)C(=O)N[C@@H](C)C(=O)N[C@@H](Cc1ccc(O)cc1)C(=O)O)C(C)C` [NH2-Phe-Indo2CA] (H-F[X2]GIVEQAAY-OH; C-terminus assumed), the half-life at 1 mg/mL is 9.7 h.

In the case of `CCCCCCCCCC(=O)NCCCNC(=O)c1ccc(C(=O)NCC(=O)N[C@H](C(=O)N[C@H](C(=O)N[C@@H](CCC(=O)O)C(=O)N[C@@H](CCC(N)=O)C(=O)N[C@@H](C)C(=O)N[C@@H](C)C(=O)N[C@@H](Cc2ccc(O)cc2)C(=O)O)C(C)C)[C@@H](C)CC)c(CN)c1` (X6-GIVEQAAY-OH), the half-life at 1 mg/mL is 181 h.

Regarding `CC[C@H](C)[C@H](NC(=O)CNC(=O)c1ncccc1CN)C(=O)N[C@H](C(=O)N[C@@H](CCC(=O)O)C(=O)N[C@@H](CCC(N)=O)C(=O)N[C@@H](C)C(=O)N[C@@H](C)C(=O)N[C@@H](Cc1ccc(O)cc1)C(=O)O)C(C)C` (X7-GIVEQAAY-OH; C-terminus assumed), the half-life at 1 mg/mL is 597 h.

With `CC[C@H](C)[C@H](NC(=O)CNC(=O)[C@@H]1Cc2ccccc2N1C(=O)[C@H](C)N)C(=O)N[C@H](C(=O)N[C@@H](CCC(=O)O)C(=O)N[C@@H](CCC(N)=O)C(=O)N[C@@H](C)C(=O)N[C@@H](C)C(=O)N[C@@H](Cc1ccc(O)cc1)C(=O)O)C(C)C` [NH2-Ala-Indo2CA] (H-A[X2]GIVEQAAY-OH; C-terminus assumed), the half-life at 1 mg/mL was 3.4 h.

The data set is the same for the next values; noted with them: compound drawn; stated after the PBS tables; read-out: Half life for cleavage (converted).
As for `Cc1cc(C(=O)O)cc(CN)c1C(=O)NCCc1ccc(N)cc1`, the half-life at 1 mg/mL was 779 h.
